# Assay results reported in patent publication US20210380545A1, “(S)-ENANTIOMERIC FORM OF A HETEROCYCLIC COMPOUND HAVING MOTIVATION IMPROVING AND/OR REFERENCE MEMORY ENHANCING ACTIVITY” (Red Bull GmbH, priority 2018, published 2021).
# Where two headings read alike, the source gives them in different places.
# What was measured:
# [1] = tested on: Adult male Sprague-Dawley rats; conditions: for chow intake vs vehicle treatment / lever pressing vs vehicle treatment: TBZ 1.0 mg/kg plus vehicle vs vehicle/vehicle
# Description: Rats were assessed using the fixed ratio 5/chow feeding choice test.
# Adult male Sprague-Dawley rats (Envigo Sprague Dawley, Indianapolis, Ind., USA; weights 275-299 g upon arrival) were pair-housed in a colony maintained at 23° C., with a 12-h light/dark cycle (lights on 07:00). Rats were food deprived to 85% of their free-feeding body weight for operant training and allowed modest growth throughout the experiment. Water was available ad libitum in the home cages.
# Behavioural sessions were conducted in operant chambers (28×23×23 cm3; Med Associates, Fairfax, Vt.) with 30 minute sessions 5 days/week. Rats were initially trained to lever press on a continuous reinforcement FR1 schedule (high-carbohydrate 45 mg pellets, Bio-Serv, Frenchtown, N.J.) and then shifted to the FR5 schedule. After 5 weeks of training on the FR5 schedule, chow was introduced. Weighed amounts of laboratory chow (Laboratory Diet, 5P00 Prolab RMH 3000, Purina Mills, St. Louis, Mo.; typically 15-20 g) were concurrently available on the floor of the chamber during the FR5/chow feeding choice task sessions. At the end of each 30 minute session, rats were immediately removed from the chambers, number of lever presses was recorded, and the amount of chow consumed was determined by weighing the remaining food (including spillage). Rats were trained on the FR5/chow feeding choice procedure for 5 weeks, after which drug testing began. On baseline and drug treatment days, rats consumed all of the operant pellets that were delivered during each session.
# The DMSO/Tween 80/saline solution was administered as the vehicle control. TBZ was obtained from Tocris Bioscience (Ellisville, Mo.) and was dissolved in DMSO, 0.9% saline, and titrated with HCl. The DMSO/saline solution was administered as the vehicle control. The TBZ dose was 1.0 mg/kg.
# The experiment used a within-groups design, with each rat receiving each drug treatment in a randomly varied order (one treatment per week, with none of the treatment sequences repeated across different animals).
# Total number of lever presses and gram quantity of chow intake from the 30 minute sessions were analysed using repeated measures ANOVA. […] When there was a significant ANOVA, non-orthogonal planned comparisons were performed, using the overall error term to assess differences between each treatment and the control condition.
# [2] = molecular target: T1, human dopamine transporter (DAT) (Homo sapiens, UniProt Q01959); test: Reuptake inhibition assay, [3H]-dopamine uptake in HEK-DAT cells; assay type: cell-based
# T1 construct: expressed in transfected cells
# [3] = molecular target: T2, human serotonin transporter (SERT) (Homo sapiens, UniProt P31645); test: Reuptake inhibition assay, [3H]5-HT uptake in HEK-SERT cells; assay type: cell-based; conditions: HEK293 cells expressing human SERT, 0.4 μM [3H]5-HT, 1 min
# T2 construct: expressed in transfected cells
# [4] = tested on: Male Sprague-Dawley rats; test: Holeboard test (reference memory index, RMI); assay type: in vivo, rat
# Description: Male Sprague-Dawley rats (17 to 18 weeks and 22 to 23 months old), bred and maintained in the Core Unit of Biomedical Research, Division of Laboratory Animal Science and Genetics, Medical University of Vienna were used. The animals were transferred to a separate experimental room one week before the start of the experimental procedure and kept there throughout the experiment individually in standard Makrolon cages filled with autoclaved woodchips temperature: 22±2° C.; humidity: 55±5%; 12 h artificial light/12 h dark cycle: light on at 7:00 am). The study was carried out according to the guidelines of the Ethics committee, Medical University of Vienna, and were approved by the Federal Ministry of Education, Science and Culture, Austria.
# The holeboard (1 m×1 m) was made of black plastic and was surrounded by translucent plexiglass walls. The walls were equipped with spatial cues. Distal cues were provided by room structures outside the board. Four out of sixteen regularly arranged holes (diameter and depth 7 cm) were baited (dustless precision pellets, 45 mg, Bioserv®). The pattern of baited holes remained the same during the entire test. To avoid olfactory orientation pellets were also present in an area below the board. Prior to the experiment for three days the rats were handled for 15 min to get familiarized to the experimenter, followed by two days of habituation to the hole-board during which the animals could explore the maze for 15 min each day with access to food pellets. The weight of each rat was reduced by food restriction to reach 85% of its initial body weight before the start of the experiment. Tap water was given ad libitum. Rats were trained for three days (five trials on day one, four trials on day 2 and a retention trial at day 3). Every trial lasted for 120 s or until all four pellets were found. The apparatus was cleaned with 0.1% Incidin® (Ecolab, Dusseldorf, Germany) between trials to remove odor cues. The interval between two successive trials for an individual was 20 min. A camera mounted on the room ceiling recorded the performance of the rats in the maze. […] To compare rats with similar levels of motivation, rats with less than 40-hole visits in total over the ten trials were excluded from the analysis. Reference memory errors were noted as the number of visits to the unbaited holes. The Reference Memory Index (RMI) was calculated using the formula (first+revisits of baited holes)/total visits of all holes. All behavioral training/testing was performed during the light phase of the light-dark cycle.
# [5] = molecular target: T3, human nor-epinephrine transporter (NET) (Homo sapiens, UniProt P23975); test: Reuptake inhibition assay, [3H]MPP+ uptake in HEK-NET cells; assay type: cell-based; conditions: HEK293 cells expressing human NET, 0.05 μM [3H]MPP+, 3 min
# T3 construct: expressed in transfected cells
# [6] = p<0.001, listed as Tetrabenazine
# [7] = HEK293 cells expressing human DAT, 0.2 μM [3H]-dopamine, 1 min, read-out: IC50, inhibition of DAT-mediated dopamine reuptake
# T1 sequence (Q01959 whole entry): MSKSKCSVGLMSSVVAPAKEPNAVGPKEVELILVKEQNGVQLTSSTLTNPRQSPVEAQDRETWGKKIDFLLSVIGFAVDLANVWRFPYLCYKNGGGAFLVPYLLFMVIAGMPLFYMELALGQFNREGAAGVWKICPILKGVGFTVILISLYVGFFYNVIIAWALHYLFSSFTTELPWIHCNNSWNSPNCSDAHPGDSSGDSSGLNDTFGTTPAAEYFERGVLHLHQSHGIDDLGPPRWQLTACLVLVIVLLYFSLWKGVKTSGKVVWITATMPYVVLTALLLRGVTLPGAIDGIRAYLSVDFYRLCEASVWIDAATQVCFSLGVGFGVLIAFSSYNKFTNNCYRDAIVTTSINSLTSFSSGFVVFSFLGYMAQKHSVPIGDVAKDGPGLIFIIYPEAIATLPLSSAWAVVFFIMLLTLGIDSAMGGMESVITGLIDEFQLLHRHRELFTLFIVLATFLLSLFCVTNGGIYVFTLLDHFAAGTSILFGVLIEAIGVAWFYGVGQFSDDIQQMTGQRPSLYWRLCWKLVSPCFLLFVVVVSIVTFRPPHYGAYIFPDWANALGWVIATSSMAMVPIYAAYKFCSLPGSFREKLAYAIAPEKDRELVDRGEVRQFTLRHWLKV
# T2 sequence (P31645 whole entry): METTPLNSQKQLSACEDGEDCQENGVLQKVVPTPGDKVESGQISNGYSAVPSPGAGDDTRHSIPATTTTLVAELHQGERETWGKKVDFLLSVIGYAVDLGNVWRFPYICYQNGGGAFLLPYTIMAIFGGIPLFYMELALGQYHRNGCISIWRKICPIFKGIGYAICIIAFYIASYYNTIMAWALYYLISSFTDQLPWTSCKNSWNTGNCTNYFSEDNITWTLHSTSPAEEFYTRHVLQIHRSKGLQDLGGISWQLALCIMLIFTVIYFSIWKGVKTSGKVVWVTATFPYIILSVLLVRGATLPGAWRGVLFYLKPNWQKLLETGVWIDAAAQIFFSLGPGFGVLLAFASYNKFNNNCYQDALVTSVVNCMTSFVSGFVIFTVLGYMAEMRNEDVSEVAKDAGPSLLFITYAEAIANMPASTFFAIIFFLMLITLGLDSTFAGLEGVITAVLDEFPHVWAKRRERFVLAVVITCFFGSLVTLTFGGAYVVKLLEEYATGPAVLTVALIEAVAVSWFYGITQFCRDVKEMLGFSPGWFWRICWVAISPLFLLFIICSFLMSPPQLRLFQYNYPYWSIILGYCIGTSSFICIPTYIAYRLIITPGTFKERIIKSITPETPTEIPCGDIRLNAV
# T3 sequence (P23975 whole entry): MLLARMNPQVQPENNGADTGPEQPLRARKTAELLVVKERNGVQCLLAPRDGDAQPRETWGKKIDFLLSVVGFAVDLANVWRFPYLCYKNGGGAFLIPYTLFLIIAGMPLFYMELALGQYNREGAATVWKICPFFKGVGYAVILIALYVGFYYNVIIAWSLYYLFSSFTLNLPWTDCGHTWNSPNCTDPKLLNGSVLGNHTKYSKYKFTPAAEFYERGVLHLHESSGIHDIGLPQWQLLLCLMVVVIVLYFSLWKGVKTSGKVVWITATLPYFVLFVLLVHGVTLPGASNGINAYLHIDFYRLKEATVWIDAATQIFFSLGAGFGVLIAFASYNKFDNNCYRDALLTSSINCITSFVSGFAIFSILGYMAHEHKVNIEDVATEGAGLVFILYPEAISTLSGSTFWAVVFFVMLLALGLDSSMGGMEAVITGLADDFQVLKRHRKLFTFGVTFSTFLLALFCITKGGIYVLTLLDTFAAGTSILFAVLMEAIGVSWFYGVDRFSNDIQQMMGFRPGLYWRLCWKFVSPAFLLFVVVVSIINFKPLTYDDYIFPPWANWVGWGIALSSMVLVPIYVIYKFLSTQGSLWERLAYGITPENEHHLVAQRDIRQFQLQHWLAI
smiles,measurement,setting,value
"COc1cc2c(cc1OC)C1CC(=O)C(CC(C)C)CN1CC2 (stereo not drawn) [TBZ, 9,10-dimethoxy-3-(2-methylpropyl)-1,3,4,6,7, 11b-hexahydrobenzo[a]quinolizin-2-one]",chow intake vs vehicle treatment,[1]; p<0.001,significantly increased chow intake
same,lever pressing vs vehicle treatment,[1]; p<0.001,significantly decreased lever pressing
same,chow intake vs vehicle treatment,[1]; [6],increased chow intake
same,lever pressing vs vehicle treatment,[1]; [6],decreased lever pressing
"[O-][S+](Cc1cncs1)C(c1ccccc1)c1ccccc1 (racemic) [Compound C3, 5-(diphenylmethanesulfinylmethyl)-1,3-thiazole]",IC50,[2]; [7],4.6 µM
"[O-][S@+](Cc1cncs1)C(c1ccccc1)c1ccccc1 [Compound C2, (R)-5-(diphenylmethanesulfinylmethyl)-1,3-thiazole]",IC50,[2]; [7],22.3 µM
"[O-][S@@+](Cc1cncs1)C(c1ccccc1)c1ccccc1 [Compound C1, (S)-5((diphenylmethanesulfinyl)-methyl-1,3-thiazole)]",IC50,[2],2.8 µM
same,effect on TBZ-induced increase of chow intake,"[1]; 24.0 mg/kg with TBZ 1.0 mg/kg vs TBZ/vehicle, 30 minute session, p<0.001",significantly attenuated the effects of TBZ
same,effect on TBZ-induced decrease of lever pressing,"[1]; 24.0 mg/kg with TBZ 1.0 mg/kg vs TBZ/vehicle, 30 minute session, p<0.01",significantly attenuated the effects of TBZ
same,reversal of the effort-related effects of tetrabenazine,[1]; highest dose (24.0 mg/kg) co-administered with TBZ 1.0 mg/kg,partially but significantly reversed the effects of tetrabenazine
same,inhibition of SERT,[3],negligible
same,"Reference Memory Index (RMI) vs controls, entire training","[4]; old male rats (22 to 23 months), 10 mg/kg body weight, Tukey post hoc p=0.021",significantly enhanced RMI
same,"Reference Memory Index (RMI) vs controls, entire training","[4]; old male rats, 1 mg, p=0.357",performed similar as compared to controls
same,"Reference Memory Index (RMI) vs controls, entire training","[4]; old male rats, 5 mg, p=0.171",performed similar as compared to controls
same,"RMI vs vehicle, day 1","[4]; old male rats, 10 mg, day 1, p=0.032",significantly enhanced RMI
same,"RMI vs vehicle, day 2","[4]; old male rats, 10 mg, day 2, p<0.001",significant treatment effect
same,"RMI vs controls, retention trial at day 3","[4]; old male rats, 10 mg, day 3, p=0.003",higher RMI
same,inhibition of NET,[5],negligible
